Measurements as given in patent publication US20260176328A1, “ANTIBODY COMPOSITIONS AND METHODS FOR DISRUPTING NONTUBERCULOUS MYCOBACTERIA BIOFILMS” (priority 2022, published 2026).

What was measured:
Details in all cases: 2 hr; for Percent killing of NRel: NRel induced with 5 μg HuTipMab
M. avium = test: Antibiotic mediated killing of planktonic and newly released (NRel) M. avium
Protocol: (§1) To determine relative susceptibility of planktonic NTM to amikacin, biofilms were prepared and gently washed twice with DPBS as described above, then treated with 200 μL of either: 7H9 (growth control); 7H9+0.5 μg amikacin/mL for M. abscessus 19977, +12 μg amikacin/mL for M. avium, +0.7 μg amikacin/mL for M. abscessus clinical isolate 1 or +lug amikacin/mL for M. abscessus clinical isolate 3. […] Treated biofilms were incubated statically at 37° C. in 5% CO2 and humidity for 2 hr, after which 150 μL was collected from each well and dispensed into 1.5 mL Eppendorf microcentrifuge tubes, then pulse-vortexed with two sterile 3 mm glass beads (Fisher Scientific International, Inc., Hampton, NH) to disrupt aggregates. Suspensions were gently sonicated for 2 min in a waterbath sonicator (Ultrasonic Bath 2.8 L, Fisher Scientific) to further disrupt any aggregates. After sonication, samples were diluted and plated on Middlebrook 7H10 agar and incubated at 37° C. with 5% CO2 in a humidified atmosphere to assess relative CFU.
(§2) To determine azithromycin-mediated killing, the same protocol as above was used with one adjustment. […] Wells were treated with 200 μL of either: 7H9 (growth control); 7H9+5 μg azithromycin/mL for M. abscessus 19977, +16 μg azithromycin/mL for M. avium, +10 μg azithromycin/mL for M. abscessus clinical isolate 1, or +8 μg azithromycin/mL for M. abscessus clinical isolate 3. […] Percent killing was then calculated as [growth control CFU/mL-NRel or planktonic CFU/mL]/[growth control CFU/mL].

[1] = tested on: M. abscessus clinical isolate 1; test: Antibiotic mediated killing of planktonic and NRel M. abscessus clinical isolate 1
Protocol: as §1, §2

M. abscessus 19977 = test: Antibiotic mediated killing of planktonic and newly released (NRel) M. abscessus 19977
Protocol: as §1, §2

[2] = tested on: M. abscessus clinical isolate 3; test: Antibiotic mediated killing of planktonic and NRel M. abscessus clinical isolate 3
Protocol: as §1, §2

| Compound | Percent killing of NRel (M. avium; 12 μg amikacin/mL (¼ MIC)) | Percent killing of planktonic bacteria (M. avium; 12 μg amikacin/mL (¼ MIC)) | Percent killing of NRel ([1]; 0.7 μg amikacin/mL) | Percent killing of planktonic bacteria ([1]; 0.7 μg amikacin/mL) | Percent killing of NRel (M. abscessus 19977; 0.5 μg amikacin/mL (¼ MIC)) | Percent killing of planktonic bacteria (M. abscessus 19977; 0.5 μg amikacin/mL (¼ MIC)) | Percent killing of NRel ([2]; lug amikacin/mL) | Percent killing of planktonic bacteria ([2]; lug amikacin/mL) | Percent killing of NRel (M. avium; 16 μg azithromycin/mL (½ MIC)) | Percent killing of planktonic bacteria (M. avium; 16 μg azithromycin/mL (½ MIC)) | Percent killing of NRel ([1]; 10 μg azithromycin/mL) | Percent killing of planktonic bacteria ([1]; 10 μg azithromycin/mL) | Percent killing of NRel (M. abscessus 19977; 5 μg azithromycin/mL (½ MIC)) | Percent killing of planktonic bacteria (M. abscessus 19977; 5 μg azithromycin/mL (½ MIC)) | Percent killing of NRel ([2]; 8 μg azithromycin/mL) | Percent killing of planktonic bacteria ([2]; 8 μg azithromycin/mL) |
| --- | --- | --- | --- | --- | --- | --- | --- | --- | --- | --- | --- | --- | --- | --- | --- | --- |
| NCC[C@H](O)C(=O)N[C@@H]1C[C@H](N)[C@@H](O[C@H]2O[C@H](CN)[C@@H](O)[C@H](O)[C@H]2O)[C@H](O)[C@H]1O[C@H]1O[C@H](CO)[C@@H](O)[C@H](N)[C@H]1O [amikacin, Amikacin] | 41% | 17% | 45% | 28% | 61% | 23% | 47% | 21% |  |  |  |  |  |  |  |  |
| CC[C@H]1OC(=O)[C@H](C)[C@@H](O[C@H]2C[C@@](C)(OC)[C@@H](O)[C@H](C)O2)[C@H](C)[C@@H](O[C@@H]2O[C@H](C)C[C@H](N(C)C)[C@H]2O)[C@](C)(O)C[C@@H](C)CN(C)[C@H](C)[C@@H](O)[C@]1(C)O [azithromycin, Azithromycin] |  |  |  |  |  |  |  |  | 36% | 19% | 47% | 28% | 42% | 20% | 45% | 25% |
